Earlier results on two compounds are cited in patent publication US7198928B2, “Human COX-1 alternatively spliced variants and methods of using same” (Allergan, Inc., priority 2003, dated 2007).

For data set [1], the system named is COX-1. Conditions: human iris vs human blood.
The conditions of data set [2]: humans treated with rofecoxib, in comparison with patients receiving naproxen.

Take `C[C@H](C(=O)O)c1ccc(-c2ccccc2)c(F)c1` [S(+)flurbiprofen]: in data set [1], the “potency of COX-1 inhibition in human iris relative to human blood” value was 70 fold. Consider `CS(=O)(=O)c1ccc(C2=C(c3ccccc3)C(=O)OC2)cc1` [rofecoxib], for which, in data set [2], the thrombotic cardiovascular events result is listed as “significant increase in thrombotic cardiovascular events”.
